Source: ChEMBL document CHEMBL1125358, “Effect of conformational mobility and hydrogen-bonding interactions on the selectivity of some guanidinoaryl-substituted mechanism-based inhibitors of trypsin-like serine proteases” (J Med Chem, 1992)
Where “and” joins values, the source holds several entries; their conditions need not be identical. Equal entries are not always repeated.

Key:
[1] = molecular target: T1, Urokinase-type plasminogen activator (Homo sapiens, UniProt P00749); experiment: Compound was tested for the rate constant of deacylation against Urokinase-type plasminogen activator
[2] = molecular target: T1, Urokinase-type plasminogen activator; experiment: Compound was tested for its binding affinity against the enzyme Urokinase-type plasminogen activator
[3] = molecular target: T1, Urokinase-type plasminogen activator; experiment: Compound was tested for the rate constant of deacylation against the enzyme Urokinase-type plasminogen activator
[4] = molecular target: T2, Chymotrypsinogen A (Bos taurus, UniProt P00766); experiment: Compound was tested for its binding affinity against the enzyme alpha-chymotrypsin
[5] = molecular target: T3, Serine protease 1 (Bos taurus, UniProt P00760); experiment: Compound was tested for its binding affinity against the enzyme trypsin
T3 sequence (P00760 whole entry): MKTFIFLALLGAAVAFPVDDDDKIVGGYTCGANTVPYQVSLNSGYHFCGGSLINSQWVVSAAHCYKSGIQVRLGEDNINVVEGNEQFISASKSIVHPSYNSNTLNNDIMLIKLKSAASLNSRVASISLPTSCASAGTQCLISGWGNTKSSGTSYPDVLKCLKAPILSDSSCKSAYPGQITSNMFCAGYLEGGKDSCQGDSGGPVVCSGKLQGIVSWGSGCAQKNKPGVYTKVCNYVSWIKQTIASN

[6] = molecular target: T2, Chymotrypsinogen A; experiment: Compound was tested for the rate constant of deacylation against alpha-chymotrypsin; kd was too fast to measure
[7] = molecular target: T3, Serine protease 1; experiment: Compound was tested for the rate constant of deacylation against the enzyme trypsin
[8] = molecular target: T4, Trypsin II (Bos taurus) (UniProt Q29463); experiment: Compound was tested for the rate constant of acylation against the enzyme trypsin
T4 sequence (whole entry): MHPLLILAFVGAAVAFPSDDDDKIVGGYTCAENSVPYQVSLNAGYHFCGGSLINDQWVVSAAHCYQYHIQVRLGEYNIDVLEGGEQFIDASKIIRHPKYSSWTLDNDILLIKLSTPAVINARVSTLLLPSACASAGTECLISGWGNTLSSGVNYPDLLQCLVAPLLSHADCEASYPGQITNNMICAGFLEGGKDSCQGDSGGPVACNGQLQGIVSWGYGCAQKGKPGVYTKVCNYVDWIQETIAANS

[9] = molecular target: T1, Urokinase-type plasminogen activator; experiment: Compound was tested for the rate constant of deacylation against Urokinase-type plasminogen activator
[10] = molecular target: T1, Urokinase-type plasminogen activator
Description: Compound was tested for the rate constant of acylation against the enzyme Urokinase-type plasminogen activator

[11] = molecular target: T5, Prothrombin (Homo sapiens, UniProt P00734); experiment: Compound was tested for the rate constant of deacylation against thrombin
[12] = molecular target: T6, Plasminogen (Homo sapiens, UniProt P00747); experiment: Compound was tested for the rate constant for deacylation against plasmin; kd was too fast to measure
[13] = molecular target: T6, Plasminogen; experiment: Compound was tested for the rate constant of acylation against the enzyme plasmin
[14] = molecular target: T5, Prothrombin; experiment: Compound was tested for its binding affinity against the enzyme thrombin
[15] = molecular target: T5, Prothrombin; experiment: Compound was tested for the rate constant of acylation against the enzyme thrombin
[16] = molecular target: T6, Plasminogen; experiment: Compound was tested for its binding affinity against the enzyme plasmin
[17] = molecular target: T7, Serine protease 1 (Bos taurus) (UniProt P00760)
T7 sequence (whole entry): T3 sequence (P00760 whole entry)

[18] = molecular target: T1, Urokinase-type plasminogen activator; experiment: Compound was tested for the rate constant of deacylation against the enzyme Urokinase-type plasminogen activator; kd was too fast to measure
[19] = molecular target: Tissue-type plasminogen activator (Homo sapiens, UniProt P00750); experiment: Compound was tested for its binding affinity against the enzyme Tissue plasminogen activator
Chain of Tissue-type plasminogen activator (P00750 whole entry): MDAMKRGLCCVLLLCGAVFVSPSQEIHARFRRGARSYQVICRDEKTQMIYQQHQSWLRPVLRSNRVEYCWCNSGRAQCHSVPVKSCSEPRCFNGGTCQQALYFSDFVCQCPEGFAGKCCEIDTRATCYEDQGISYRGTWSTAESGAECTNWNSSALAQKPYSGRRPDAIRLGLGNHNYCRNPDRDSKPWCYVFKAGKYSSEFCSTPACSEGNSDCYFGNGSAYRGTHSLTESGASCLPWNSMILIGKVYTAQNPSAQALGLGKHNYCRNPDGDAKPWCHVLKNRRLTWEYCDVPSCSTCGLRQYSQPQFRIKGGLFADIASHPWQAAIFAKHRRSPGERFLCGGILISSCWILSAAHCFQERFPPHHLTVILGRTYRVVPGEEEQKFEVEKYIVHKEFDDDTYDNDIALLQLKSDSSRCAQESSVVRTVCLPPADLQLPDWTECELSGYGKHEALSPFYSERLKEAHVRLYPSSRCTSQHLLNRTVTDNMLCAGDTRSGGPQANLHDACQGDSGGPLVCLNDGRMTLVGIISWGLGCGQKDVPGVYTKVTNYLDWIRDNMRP

T6 sequence (P00747 97-580 limits assumed): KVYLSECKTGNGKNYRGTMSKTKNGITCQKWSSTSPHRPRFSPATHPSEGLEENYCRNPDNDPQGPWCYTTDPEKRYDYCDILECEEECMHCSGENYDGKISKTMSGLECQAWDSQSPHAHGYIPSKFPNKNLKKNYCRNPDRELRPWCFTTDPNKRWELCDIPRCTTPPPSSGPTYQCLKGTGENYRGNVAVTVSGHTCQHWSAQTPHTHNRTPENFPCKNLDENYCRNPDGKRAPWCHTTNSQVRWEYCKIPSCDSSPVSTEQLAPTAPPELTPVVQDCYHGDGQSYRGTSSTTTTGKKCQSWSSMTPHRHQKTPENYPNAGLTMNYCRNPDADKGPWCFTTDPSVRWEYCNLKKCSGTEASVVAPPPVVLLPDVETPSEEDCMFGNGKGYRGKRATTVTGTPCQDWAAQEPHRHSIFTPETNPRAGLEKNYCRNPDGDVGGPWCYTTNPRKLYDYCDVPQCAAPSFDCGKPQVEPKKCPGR
T6 sequence (P00747 581-810 limits assumed): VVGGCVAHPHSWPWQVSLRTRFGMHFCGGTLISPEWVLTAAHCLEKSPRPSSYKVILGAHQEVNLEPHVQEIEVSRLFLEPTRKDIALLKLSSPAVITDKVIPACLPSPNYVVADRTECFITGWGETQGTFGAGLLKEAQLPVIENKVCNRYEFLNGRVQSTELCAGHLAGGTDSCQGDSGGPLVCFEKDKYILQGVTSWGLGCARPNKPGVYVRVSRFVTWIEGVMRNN

Ki [2] [nM]	Kd [3] [s⁻¹]	Ki [4] [nM]	Ki [5]	Kd [7] [s⁻¹]	Kd [9] [s⁻¹]	Ka [10] [min⁻¹]	Kd [11] [s⁻¹]	Ka [13] [min⁻¹]	Ki [14] [nM]	Ka [15] [min⁻¹]	Ki [16] [nM]	Ka [17] [min⁻¹]	SMILES	also measured
18700	1.33e-05	170	670 nM and 2760 nM	–	–	–	–	–	–	–	–	–	N=C(N)Nc1ccc(C2C/C(=C/I)OC(=O)C2NC(=O)c2ccccc2)cc1 (centres undefined)	Kd [1]: 1.3e-05 s⁻¹
–	–	460	10000 nM	0.00025	3.3e-05	–	–	–	–	–	–	–	C=C1CC(c2ccc(NC(=N)N)cc2)C(NC(=O)c2ccccc2)C(=O)O1 (centres undefined)	Kd [6]: Fast; Ka [8]: 10.2 min⁻¹
350	0.000733	–	–	–	–	9.8	0.0001	57	37900	5.58	466000	–	C=C1CCC(c2ccc(CNC(=N)N)cc2)C(=O)O1 (centres undefined)	Kd [12]: Fast
7830	–	–	4280 nM	0.00033	–	2.61	–	–	–	–	–	0.54	N=C(N)Nc1ccc(C2CC(=O)O/C(=C\I)C2)cc1 (centres undefined)	Kd [18]: Fast
–	–	–	80 nM	–	–	7.56	0.000217	10.2	14800	27.2	1190	18.4	N=C(N)NCc1ccc(C2CC/C(=C/I)OC2=O)cc1 (centres undefined)	Ki [19]: 120 nM
120	–	–	9400 nM	3.3e-05	0.00015	–	–	–	–	–	–	–	C=C1CC(c2ccc(NC(=N)N)cc2)CC(=O)O1 (centres undefined)	–
